Values quoted from earlier work in US20170056332A1, “HEMORRHOID PREPARATION AND SHEETS” (C.B. Fleet Company, Incorporated, priority 2015, published 2017).

Settings: in the presence of menthol; Obata et al. 1990

percutaneous absorption of hydrophilic diclofenac sodium: substantially enhanced
Compound: CC1CCC(C(C)C)C(O)C1 (stereo not shown) [Menthol]
